# Measured values taken from ChEMBL document CHEMBL1139415, “Highly functionalized 7-azaindoles as selective PPAR gamma modulators” (Bioorg Med Chem Lett, 2008).
# What was measured:
# [1] = molecular target: Prostaglandin E2 receptor EP4 subtype (Homo sapiens, UniProt P35408); test: Inhibition of prostanoid EP4 receptor
# [2] = molecular target: 5-hydroxytryptamine receptor 2B (Homo sapiens, UniProt P41595); test: Displacement of radioligand from 5HT2B receptor
# [3] = molecular target: Polyunsaturated fatty acid 5-lipoxygenase (Homo sapiens, UniProt P09917); test: Inhibition of 5-Lipoxygenase
# [4] = molecular target: Prostaglandin F2-alpha receptor (Homo sapiens, UniProt P43088); test: Inhibition of prostanoid FP receptor
# Substance-K receptor = Substance-K receptor (Homo sapiens, UniProt P21452); test: Displacement of radioligand from tachykinin NK2 receptor
# Chain of Substance-K receptor (P21452 whole entry): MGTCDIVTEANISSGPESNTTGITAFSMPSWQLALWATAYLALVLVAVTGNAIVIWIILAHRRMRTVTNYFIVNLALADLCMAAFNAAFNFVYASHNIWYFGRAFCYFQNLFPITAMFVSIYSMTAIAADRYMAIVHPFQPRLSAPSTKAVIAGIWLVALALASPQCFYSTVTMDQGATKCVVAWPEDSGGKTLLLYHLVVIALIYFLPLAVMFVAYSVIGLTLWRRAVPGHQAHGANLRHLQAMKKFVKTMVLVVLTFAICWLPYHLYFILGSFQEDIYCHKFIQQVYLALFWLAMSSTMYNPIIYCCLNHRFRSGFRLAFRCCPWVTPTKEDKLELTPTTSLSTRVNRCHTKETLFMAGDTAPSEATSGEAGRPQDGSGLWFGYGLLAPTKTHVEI
# [5] = molecular target: Alpha-2B adrenergic receptor (Homo sapiens, UniProt P18089); test: Displacement of radioligand from adrenergic alpha2B receptor
# [6] = molecular target: Kappa-type opioid receptor (Homo sapiens, UniProt P41145); test: Displacement of radioligand from kappa opioid receptor
# [7] = molecular target: Prostaglandin D2 receptor (Homo sapiens, UniProt Q13258); test: Inhibition of prostanoid DP receptor
# [8] = molecular target: Sodium-dependent dopamine transporter (Homo sapiens, UniProt Q01959); test: Displacement of radioligand from DAT
# Chain of Sodium-dependent dopamine transporter (Q01959 whole entry): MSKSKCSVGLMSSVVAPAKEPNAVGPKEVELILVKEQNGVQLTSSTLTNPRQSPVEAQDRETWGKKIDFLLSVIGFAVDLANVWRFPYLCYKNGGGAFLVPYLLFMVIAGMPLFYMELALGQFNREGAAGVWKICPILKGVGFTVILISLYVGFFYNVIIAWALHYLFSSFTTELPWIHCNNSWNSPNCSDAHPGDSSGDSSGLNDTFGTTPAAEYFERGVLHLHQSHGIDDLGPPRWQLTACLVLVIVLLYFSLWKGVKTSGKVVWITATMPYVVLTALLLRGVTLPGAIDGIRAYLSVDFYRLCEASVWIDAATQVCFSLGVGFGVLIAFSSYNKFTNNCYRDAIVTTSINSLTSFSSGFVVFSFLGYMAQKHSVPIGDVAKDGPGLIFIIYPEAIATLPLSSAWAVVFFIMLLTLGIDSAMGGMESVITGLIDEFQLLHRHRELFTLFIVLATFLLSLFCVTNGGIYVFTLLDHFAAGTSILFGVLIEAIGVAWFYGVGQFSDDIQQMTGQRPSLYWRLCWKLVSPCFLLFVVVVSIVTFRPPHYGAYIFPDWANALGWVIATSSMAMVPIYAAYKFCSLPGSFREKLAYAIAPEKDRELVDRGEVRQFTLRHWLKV
# [9] = molecular target: Prostaglandin E2 receptor EP3 subtype (Homo sapiens, UniProt P43115); test: Inhibition of prostanoid EP3 receptor
# Chain of Prostaglandin E2 receptor EP3 subtype (P43115 whole entry): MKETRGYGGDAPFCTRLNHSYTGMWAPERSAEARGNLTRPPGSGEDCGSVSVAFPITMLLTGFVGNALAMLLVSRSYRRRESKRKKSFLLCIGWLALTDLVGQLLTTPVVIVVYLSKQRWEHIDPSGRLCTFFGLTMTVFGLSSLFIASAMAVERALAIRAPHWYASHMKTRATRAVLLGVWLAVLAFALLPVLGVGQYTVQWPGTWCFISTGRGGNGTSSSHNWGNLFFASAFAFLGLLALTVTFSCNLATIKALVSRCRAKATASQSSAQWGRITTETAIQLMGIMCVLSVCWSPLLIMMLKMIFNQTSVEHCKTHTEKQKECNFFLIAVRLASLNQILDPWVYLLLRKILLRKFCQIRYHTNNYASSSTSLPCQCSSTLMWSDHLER
# Mu-type opioid receptor = Mu-type opioid receptor (Homo sapiens, UniProt P35372); test: Displacement of radioligand from mu opioid receptor
# [10] = molecular target: Beta-1 adrenergic receptor (Homo sapiens, UniProt P08588); test: Displacement of radioligand from adrenergic beta-1 receptor
# Chain of Beta-1 adrenergic receptor (P08588 whole entry): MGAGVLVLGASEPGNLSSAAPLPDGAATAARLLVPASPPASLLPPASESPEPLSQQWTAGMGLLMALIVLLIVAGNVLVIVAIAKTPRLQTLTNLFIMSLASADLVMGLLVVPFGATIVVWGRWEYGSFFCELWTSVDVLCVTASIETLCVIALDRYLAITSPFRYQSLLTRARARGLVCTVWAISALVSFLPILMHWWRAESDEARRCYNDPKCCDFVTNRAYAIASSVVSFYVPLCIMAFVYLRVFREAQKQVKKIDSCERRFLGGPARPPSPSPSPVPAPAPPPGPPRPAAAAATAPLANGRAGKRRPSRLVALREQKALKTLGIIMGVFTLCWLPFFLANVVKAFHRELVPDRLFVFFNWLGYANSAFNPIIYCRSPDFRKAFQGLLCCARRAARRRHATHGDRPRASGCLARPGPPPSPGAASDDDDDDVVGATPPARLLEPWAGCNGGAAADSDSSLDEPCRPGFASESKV
# [11] = molecular target: Muscarinic acetylcholine receptor M3 (Homo sapiens, UniProt P20309); test: Displacement of radioligand from muscarinic M3 receptor
# [12] = Inhibition of PDE2
# Prostacyclin receptor = Prostacyclin receptor (Homo sapiens, UniProt P43119); test: Inhibition of prostanoid IP receptor
# Chain of Prostacyclin receptor (P43119 whole entry): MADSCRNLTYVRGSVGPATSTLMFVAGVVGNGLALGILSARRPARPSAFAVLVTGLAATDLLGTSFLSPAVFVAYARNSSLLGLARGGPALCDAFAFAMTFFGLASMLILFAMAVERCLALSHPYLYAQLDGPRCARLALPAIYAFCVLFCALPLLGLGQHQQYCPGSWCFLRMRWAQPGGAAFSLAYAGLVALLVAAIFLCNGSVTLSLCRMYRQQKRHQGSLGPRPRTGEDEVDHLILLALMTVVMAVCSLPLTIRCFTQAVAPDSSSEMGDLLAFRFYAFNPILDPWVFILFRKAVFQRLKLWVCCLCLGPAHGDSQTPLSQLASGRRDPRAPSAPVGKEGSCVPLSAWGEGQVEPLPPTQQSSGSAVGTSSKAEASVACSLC
# D(3) dopamine receptor = D(3) dopamine receptor (Homo sapiens, UniProt P35462); test: Displacement of radioligand from dopamine D3 receptor
# Chain of D(3) dopamine receptor (P35462 whole entry): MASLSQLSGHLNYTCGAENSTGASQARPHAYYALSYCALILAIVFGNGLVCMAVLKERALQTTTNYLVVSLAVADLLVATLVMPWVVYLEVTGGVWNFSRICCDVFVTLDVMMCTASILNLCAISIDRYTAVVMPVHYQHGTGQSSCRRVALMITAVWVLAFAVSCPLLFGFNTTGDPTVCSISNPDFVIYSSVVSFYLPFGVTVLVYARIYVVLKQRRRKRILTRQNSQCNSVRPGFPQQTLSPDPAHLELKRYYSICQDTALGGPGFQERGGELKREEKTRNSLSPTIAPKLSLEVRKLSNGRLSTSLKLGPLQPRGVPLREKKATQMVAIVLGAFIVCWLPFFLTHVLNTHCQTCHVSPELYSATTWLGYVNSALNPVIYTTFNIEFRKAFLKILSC
# [13] = molecular target: Muscarinic acetylcholine receptor M4 (Homo sapiens, UniProt P08173); test: Displacement of radioligand from muscarinic M4 receptor
# Chain of Muscarinic acetylcholine receptor M4 (P08173 whole entry): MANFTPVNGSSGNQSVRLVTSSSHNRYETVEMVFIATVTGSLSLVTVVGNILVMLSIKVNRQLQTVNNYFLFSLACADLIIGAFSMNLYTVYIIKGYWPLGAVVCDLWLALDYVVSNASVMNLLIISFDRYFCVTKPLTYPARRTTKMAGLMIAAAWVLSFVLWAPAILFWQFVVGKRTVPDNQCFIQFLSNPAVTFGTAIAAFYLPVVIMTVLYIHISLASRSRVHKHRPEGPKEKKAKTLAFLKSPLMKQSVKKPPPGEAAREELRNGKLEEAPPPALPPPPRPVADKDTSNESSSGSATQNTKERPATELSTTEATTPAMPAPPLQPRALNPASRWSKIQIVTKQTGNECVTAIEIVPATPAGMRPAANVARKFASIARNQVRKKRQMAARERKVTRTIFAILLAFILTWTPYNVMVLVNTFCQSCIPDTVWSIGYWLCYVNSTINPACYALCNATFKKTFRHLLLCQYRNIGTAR
# [14] = molecular target: Sodium-dependent noradrenaline transporter (Homo sapiens, UniProt P23975); test: Displacement of radioligand from NET
# Chain of Sodium-dependent noradrenaline transporter (P23975 whole entry): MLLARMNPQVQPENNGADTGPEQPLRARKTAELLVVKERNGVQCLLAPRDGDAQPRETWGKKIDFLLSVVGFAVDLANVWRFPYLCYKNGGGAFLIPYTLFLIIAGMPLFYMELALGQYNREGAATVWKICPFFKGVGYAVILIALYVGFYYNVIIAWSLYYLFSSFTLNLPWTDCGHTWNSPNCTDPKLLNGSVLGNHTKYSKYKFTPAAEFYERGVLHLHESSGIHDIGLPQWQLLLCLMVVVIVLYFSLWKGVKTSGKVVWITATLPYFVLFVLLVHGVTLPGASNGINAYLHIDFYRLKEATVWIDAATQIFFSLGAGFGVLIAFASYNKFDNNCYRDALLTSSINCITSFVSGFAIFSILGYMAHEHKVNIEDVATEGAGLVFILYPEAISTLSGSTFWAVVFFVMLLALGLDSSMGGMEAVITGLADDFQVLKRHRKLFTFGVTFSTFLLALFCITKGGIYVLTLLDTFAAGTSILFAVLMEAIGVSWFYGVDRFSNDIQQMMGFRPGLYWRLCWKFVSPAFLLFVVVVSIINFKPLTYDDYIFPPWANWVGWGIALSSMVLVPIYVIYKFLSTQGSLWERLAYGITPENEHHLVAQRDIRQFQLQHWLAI
# [15] = molecular target: Delta-type opioid receptor (Homo sapiens, UniProt P41143); test: Displacement of radioligand from delta opioid receptor
# D(2) dopamine receptor = D(2) dopamine receptor (Homo sapiens, UniProt P14416); test: Displacement of radioligand from dopamine D2S receptor
# [16] = molecular target: Alpha-2A adrenergic receptor (Homo sapiens, UniProt P08913); test: Displacement of radioligand from adrenergic alpha2A receptor
# D(1A) dopamine receptor = D(1A) dopamine receptor (Homo sapiens, UniProt P21728); test: Displacement of radioligand from dopamine D1 receptor
# Chain of D(1A) dopamine receptor (P21728 whole entry): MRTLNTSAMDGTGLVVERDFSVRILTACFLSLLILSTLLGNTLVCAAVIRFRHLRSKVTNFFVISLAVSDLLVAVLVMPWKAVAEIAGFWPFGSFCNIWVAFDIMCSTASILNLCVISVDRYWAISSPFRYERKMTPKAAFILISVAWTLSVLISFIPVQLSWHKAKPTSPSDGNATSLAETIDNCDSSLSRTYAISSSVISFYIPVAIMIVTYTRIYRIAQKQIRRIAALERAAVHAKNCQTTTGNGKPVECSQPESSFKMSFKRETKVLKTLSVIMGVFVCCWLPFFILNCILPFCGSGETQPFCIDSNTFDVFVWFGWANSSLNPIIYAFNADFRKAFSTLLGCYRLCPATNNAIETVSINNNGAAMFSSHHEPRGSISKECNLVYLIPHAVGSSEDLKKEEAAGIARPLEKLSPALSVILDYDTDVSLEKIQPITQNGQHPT
# [17] = molecular target: Beta-3 adrenergic receptor (Homo sapiens, UniProt P13945); test: Displacement of radioligand from adrenergic beta3 receptor
# Chain of Beta-3 adrenergic receptor (P13945 whole entry): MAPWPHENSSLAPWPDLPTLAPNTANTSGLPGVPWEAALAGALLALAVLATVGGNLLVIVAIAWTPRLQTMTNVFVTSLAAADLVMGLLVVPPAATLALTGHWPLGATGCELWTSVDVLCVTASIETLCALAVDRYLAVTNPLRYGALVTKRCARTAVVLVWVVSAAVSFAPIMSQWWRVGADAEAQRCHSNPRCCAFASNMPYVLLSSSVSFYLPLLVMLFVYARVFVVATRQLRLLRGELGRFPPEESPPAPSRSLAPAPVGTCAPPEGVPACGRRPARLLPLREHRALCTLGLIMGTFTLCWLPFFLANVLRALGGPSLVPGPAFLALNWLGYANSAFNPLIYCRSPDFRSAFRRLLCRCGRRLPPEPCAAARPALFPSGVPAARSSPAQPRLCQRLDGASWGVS
# [18] = molecular target: Sodium-dependent serotonin transporter (Homo sapiens, UniProt P31645); test: Displacement of radioligand from SERT
# [19] = Inhibition of PDE3
# Thromboxane A2 receptor = Thromboxane A2 receptor (Homo sapiens, UniProt P21731); test: Displacement of radioligand from TXA2 receptor
# Chain of Thromboxane A2 receptor (P21731 whole entry): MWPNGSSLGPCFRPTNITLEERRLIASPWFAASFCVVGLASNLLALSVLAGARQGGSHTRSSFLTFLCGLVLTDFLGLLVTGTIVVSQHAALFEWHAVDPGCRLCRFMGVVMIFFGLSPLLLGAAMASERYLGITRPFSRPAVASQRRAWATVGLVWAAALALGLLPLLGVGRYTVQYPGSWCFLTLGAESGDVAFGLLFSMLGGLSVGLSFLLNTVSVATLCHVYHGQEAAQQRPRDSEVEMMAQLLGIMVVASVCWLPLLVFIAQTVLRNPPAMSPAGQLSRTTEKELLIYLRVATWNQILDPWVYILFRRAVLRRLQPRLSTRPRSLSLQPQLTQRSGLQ
smiles,measurement,setting,value
Cc1c(C(=O)c2ccc(Cl)cc2)c2ccc(OC(F)(F)F)cc2n1Cc1cccc(O[C@H](C)C(=O)O)c1,IC50,[1],3.7 µM
same,IC50,[2],1.14 µM
same,IC50,[3],1.64 µM
same,IC50,[4],2.73 µM
same,IC50,Substance-K receptor,0.53 µM
same,IC50,[5],0.77 µM
same,IC50,[6],3.48 µM
same,IC50,[7],8.45 µM
same,IC50,[8],3.41 µM
same,IC50,[9],1.22 µM
same,IC50,Mu-type opioid receptor,1.86 µM
same,IC50,[10],4.07 µM
same,IC50,[11],1.56 µM
same,IC50,[12],29.1 µM
same,IC50,Prostacyclin receptor,6.34 µM
same,IC50,D(3) dopamine receptor,0.837 µM
same,IC50,[13],1.34 µM
same,IC50,[14],2.16 µM
same,IC50,[15],1.69 µM
same,IC50,D(2) dopamine receptor,3.55 µM
same,IC50,[16],1.65 µM
same,IC50,D(1A) dopamine receptor,1.53 µM
same,IC50,[17],4.86 µM
same,IC50,[18],0.97 µM
same,IC50,[19],22.5 µM
same,IC50,Thromboxane A2 receptor,2.03 µM
